From patent publication US9511058B2, “Methods for using carboxamide, sulfonamide and amine compounds” (Rigel Pharmaceuticals, Inc., priority 2010, dated 2016) come the findings set out here.

The target in one test is AMPK. The test is described as follows: AMPK activation, enzyme-linked immunosorbent assay. The conditions noted are these: compounds of Table 1 (Table 6). It counts as biochemical.
Compound `N#Cc1ccc(N2CCC(Oc3ccc(S(=O)(=O)NC4CCN(Cc5ccncc5)CC4)cn3)CC2)cc1` [1-52, N-(1-(pyridin-4-ylmethyl)piperidin-4-yl)-6-(1-(4-cyanophenyl)piperidin-4-yloxy)pyridine-3-sulfonamide] showed an EC50 of 100 to 500 nM. Same read-out and setting: to `O=C(NC1CCN(Cc2ccncc2)CC1)c1cc(OC2CCN(c3ccc(C(F)(F)F)cc3)CC2)ccn1` [1-13, N-(1-(pyridin-4-ylmethyl)piperidin-4-yl)-4-(1-(4-(trifluoromethyl)phenyl)piperidin-4-yloxy)picolinamide] belongs 100 to 500 nM; to `O=S(=O)(NC1CCN(Cc2cccc(C(F)(F)F)c2)CC1)c1ccc(OC2CCN(c3ccc(C(F)(F)F)cc3)CC2)nc1` [1-59, N-(1-(3-(trifluoromethyl)benzyl)piperidin-4-yl)-6-(1-(4-(trifluoromethyl)phenyl)piperidin-4-yloxy)pyridine-3-sulfonamide], 100 to 500 nM.

The compound `O=C(N[C@H]1CCN(Cc2ccc(F)cc2)C1)c1ccc(OC2CCN(c3ccc(C(F)(F)F)cc3)CC2)cn1` [1-32, (S)-N-(1-(4-fluorobenzyl)pyrrolidin-3-yl)-5-(1-(4-(trifluoromethyl)phenyl)piperidin-4-yloxy)picolinamide] had an EC50 of 100 to 500 nM. With `O=C(NC1CCN(Cc2ccc(F)cc2)CC1)c1cc2ccc(OC3CCN(c4ccc(OC(F)(F)F)cc4)CC3)cc2o1` [1-94, N-(1-(4-fluorobenzyl)piperidin-4-yl)-6-(1-(4-(trifluoromethoxy)phenyl)piperidin-4-yloxy)benzofuran-2-carboxamide], the EC50 is less than 100 nM. `Cc1c(C(=O)NC2CCN(Cc3ccccc3C#N)CC2)oc2cc(OC3CCN(c4ccc(C(F)(F)F)cc4)CC3)ccc12` [1-67, N-(1-(2-cyanobenzyl)piperidin-4-yl)-3-methyl-6-(1-(4-(trifluoromethyl)phenyl)piperidin-4-yloxy)benzofuran-2-carboxamide] yielded an EC50 of less than 100 nM. On to `CC(C)(C)OC(=O)N1CCC(NC2CCc3cc(OC4CCN(c5ccc(C(F)(F)F)cc5)CC4)ccc32)CC1` (centres unmarked) [1-156, tert-butyl 4-(5-(1-(4-(trifluoromethyl)phenyl)piperidin-4-yloxy)-2,3-dihydro-1H-inden-1-ylamino)piperidine-1-carboxylate], for which the EC50 lay in the range of 100 to 500 nM.

On to `O=C(NC1CCN(Cc2ccncc2)CC1)c1cc2ccc(OC3CCN(c4ccc(OC(F)(F)F)cc4)CC3)cc2o1` [1-88, N-(1-(pyridin-4-ylmethyl)piperidin-4-yl)-6-(1-(4-(trifluoromethoxy)phenyl)piperidin-4-yloxy)benzofuran-2-carboxamide], for which the EC50 is less than 100 nM. Turning to `Fc1ccc(CN2CCC(NC3CCc4cc(OC5CCN(c6ccc(C(F)(F)F)cc6)CC5)ccc43)CC2)cc1` (centres unmarked) [1-159, 1-(4-fluorobenzyl)-N-(5-(1-(4-(trifluoromethyl)phenyl)piperidin-4-yloxy)-2,3-dihydro-1H-inden-1-yl)piperidin-4-amine], the EC50 was 100 to 500 nM. Compound `O=C(NC1CCN(Cc2cn(C(c3ccccc3)(c3ccccc3)c3ccccc3)cn2)CC1)c1ccc(OC2CCN(c3ccc(C(F)(F)F)cc3)CC2)cn1` [1-47, 5-(1-(4-(trifluoromethyl)phenyl)piperidin-4-yloxy)-N-(1-((1-trityl-1H-imidazol-4-yl)methyl)piperidin-4-yl)picolinamide] gave an EC50 of 1000 to 5000 nM.

The compound `CN(C(=O)c1cc2cc(OC3CCN(c4ccc(C(F)(F)F)cc4)CC3)ccc2o1)C1CCN(Cc2ccccc2C#N)CC1` [1-111, N-(1-(2-cyanobenzyl)piperidin-4-yl)-N-methyl-5-(1-(4-(trifluoromethyl)phenyl)piperidin-4-yloxy)benzofuran-2-carboxamide] had an EC50 of 100 to 500 nM. Still for that read-out and setting: under `O=C(NC1CCN(Cc2cccnc2)CC1)c1cc2cc(OC3CCN(c4ccc(C(F)(F)F)cc4)CC3)ccc2o1` [1-101, N-(1-(pyridin-3-ylmethyl)piperidin-4-yl)-5-(1-(4-(trifluoromethyl)phenyl)piperidin-4-yloxy)benzofuran-2-carboxamide] stands less than 100 nM. Turning to `N#Cc1ccc(CN2CCC(NC(=O)c3ccnc(OC4CCN(c5ccc(C(F)(F)F)cc5)CC4)c3)CC2)cc1` [1-21, N-(1-(4-cyanobenzyl)piperidin-4-yl)-2-(1-(4-(trifluoromethyl)phenyl)piperidin-4-yloxy)isonicotinamide], the EC50 is 100 to 500 nM.

Still in this test, the particulars now being: compounds of Table 2 (Table 7).
The compound `NC(=O)c1ccc(CN2CCc3[nH]c4ccc(C(=O)NC5CCN(Cc6ccncc6)CC5)cc4c3C2)cc1` [2-45, 2-(4-carbamoylbenzyl)-N-(1-(pyridin-4-ylmethyl)piperidin-4-yl)-2,3,4,5-tetrahydro-1H-pyrido [4,3-b]indole-8-carboxamide] had a concentration giving a half-maximal response (EC50) greater than 100000 nM. For the compound `O=C(NC1CCN(Cc2cccnc2)CC1)c1ccc2[nH]c3c(c2c1)CN(Cc1ccc(F)cc1)CC3` [2-8, 2-(4-fluorobenzyl)-N-(1-(pyridin-3-ylmethyl)piperidin-4-yl)-2,3,4,5-tetrahydro-1H-pyrido[4,3-b]indole-8-carboxamide], the EC50 fell in the range of 5000 to 10000 nM. On the same count and under the same terms, under `CC(C)(C)OC(=O)N1CCC(NC(=O)c2ccc3[nH]c4c(c3c2)CN(c2ccc(F)cc2)CC4)CC1` [2-38, tert-butyl 4-(2-(4-fluorophenyl)-2,3,4,5-tetrahydro-1H-pyrido [4,3-b]indole-8-carboxamido)piperidine-1-carboxylate] stands 10000 to 50000 nM.

Compound `CC(C)(C)OC(=O)N1CCC(NC(=O)c2ccc3[nH]c4c(c3c2)CN(Cc2ccc(C(N)=O)cc2)CC4)CC1` [2-43, tert-butyl 4-(2-(4-carbamoylbenzyl)-2,3,4,5-tetrahydro-1H-pyrido[4,3-b]indole-8-carboxamido) piperidine-1-carboxylate] returned a half-maximal effective concentration (EC50) greater than 100000 nM. As to `O=C(NC1CCN(Cc2ccc(C(F)(F)F)cc2)CC1)c1ccc2[nH]c3c(c2c1)CN(Cc1ccc(C(F)(F)F)cc1)CC3` [2-13, N-(1-(4-trifluoromethyl-benzyl)piperidin-4-yl)-2-(4-(trifluoro-methyl)benzyl)-2,3,4,5-tetrahydro-1H-pyrido[4,3-b]indole-8-carboxamide], the EC50 is less than 500 nM.

Staying with this test, now noted: compounds of Table 3 (Table 8).
`CC(C)(C)OC(=O)N1CCC(NC(=O)c2cnc(OC3CCN(c4ccc(C(F)(F)F)cc4)CC3)cn2)CC1` [3-19, tert-butyl 4-(5-(1-(4-(trifluoromethyl)phenyl)piperidin-4-yloxy)pyrazine-2-carboxamido)piperidine-1-carboxylate]: the EC50 is 1000 to 10000 nM. The same measure, in the same setting: under `N#Cc1ccc(CN2CCC(NC(=O)c3ccc(C(=O)N4CCN(Cc5ccc(Cl)cc5)CC4)cc3)CC2)cc1` [3-28, 4-(4-(4-chlorobenzyl)piperazine-1-carbonyl)-N-(1-(4-cyanobenzyl)piperidin-4-yl)benzamide] stands less than 100 nM.

Staying with this test, now noted: compounds of Table 4 (Table 9).
`O=C(N[C@H]1CCN(Cc2ccc(C(F)(F)F)cc2)C1)c1ccc(C(=O)N2CCN(c3ccc(Cl)cc3)CC2)cn1` [4-8, 5-(4-(4-chlorophenyl)piperazine-1-carbonyl)-N-(1-(4-(trifluoromethyl)benzyl)pyrrolidin-3-yl)picolinamide] yielded an EC50 of 1000 to 5000 nM. Still for that read-out and setting: under `N#Cc1ccc(CN2CCC(NC(=O)c3ccc(C(=O)N4CCN(Cc5ccc(F)cc5)CC4)cn3)CC2)cc1` [4-2, N-(1-(4-cyanobenzyl)piperidin-4-yl)-5-(4-(4-fluorobenzyl)piperazine-1-carbonyl)picolinamide] stands less than 500 nM.

The test is the same for the next values; noted with them: compounds of Table 5 (Table 10).
Turning to `COc1cc(C(=O)NCCCNC(=O)OC(C)(C)C)ccc1OC1CCN(Cc2ccc(C(F)(F)F)cc2)CC1` [5-94, tert-butyl 3-(3-methoxy-4-(1-(4-(trifluoromethyl)benzyl)piperidin-4-yloxy)benzamido)propylcarbamate], the EC50 was less than 1000 nM. Still for that read-out and setting: under `COc1cc(C(=O)NC2CCN(Cc3ccccc3)CC2)ccc1OC1CCN(c2cccs2)CC1` [5-8, N-(1-benzylpiperidin-4-yl)-3-methoxy-4-(1-(thiophen-2-yl)piperidin-4-yloxy)benzamide] stands 1000 to 10000 nM. `O=C(NC1CCN(C(=O)c2ccc(F)cc2)CC1)c1ccc(OC2CCN(c3ccc(C(F)(F)F)cc3)CC2)c(F)c1` [5-31, 3-fluoro-N-(1-(4-fluorobenzoyl)piperidin-4-yl)-4-(1-(4-(trifluoromethyl)phenyl)piperidin-4-yloxy)benzamide] returned an EC50 of less than 1000 nM. As for `COC(=O)c1ccc(CN2CCC(NC(=O)c3ccc(OC4CCN(c5ccc(C(F)(F)F)cc5)CC4)c(F)c3)CC2)cc1` [5-33, methyl 4-((4-(3-fluoro-4-(1-(4-(trifluoromethyl)phenyl)piperidin-4-yloxy)benzamido)piperidin-1-yl)methyl)benzoate], the EC50 was less than 1000 nM.

`O=C(NC1CCN(Cc2ccccc2)CC1)c1ccc(OC2CCN(C(=O)c3ccc(F)cc3)CC2)c(Cl)c1` [5-22, N-(1-benzylpiperidin-4-yl)-3-chloro-4-(1-(4-fluorobenzoyl)piperidin-4-yloxy)benzamide] had an EC50 of 1000 to 10000 nM. In the case of `O=C(NC1CCN(Cc2ccccc2)CC1)c1ccc(OC2CCN(c3ccc(C(F)(F)F)cc3)CC2)cc1Cl` [5-47, N-(1-benzylpiperidin-4-yl)-2-chloro-4-(1-(4-(trifluoromethyl)phenyl)piperidin-4-yloxy)benzamide], the EC50 was less than 1000 nM.

`N#Cc1ccc(N2CCC(Oc3cccc(C(=O)NC4CCN(Cc5ccncc5)CC4)c3)CC2)cc1` [5-88, N-(1-(pyridin-4-ylmethyl)piperidin-4-yl)-3-(1-(4-cyanophenyl)piperidin-4-yloxy)benzamide] gave an EC50 of 1000 to 10000 nM. In the case of `O=C(NC1CCN(Cc2cccnc2)CC1)c1ccc(OC2CCN(c3ccc(C(F)(F)F)cc3)CC2)c(F)c1` [5-29, 3-fluoro-N-(1-(pyridin-3-ylmethyl)piperidin-4-yl)-4-(1-(4-(trifluoromethyl)phenyl)piperidin-4-yloxy)benzamide], the EC50 is less than 1000 nM. Same read-out and setting: under `O=C(NC1CCN(Cc2ccc(Cl)cc2)CC1)c1ccc(OC2CCN(Cc3ccc(Cl)c(Cl)c3)CC2)c(F)c1` [5-80, N-(1-(4-chlorobenzyl)piperidin-4-yl)-4-(1-(3,4-dichlorobenzyl)piperidin-4-yloxy)-3-fluorobenzamide] stands less than 1000 nM; under `O=C(NC1CCN(Cc2ccccc2)CC1)c1ccc(OC2CCN(Cc3cccnc3)CC2)c(F)c1` [5-38, N-(1-benzylpiperidin-4-yl)-3-fluoro-4-(1-(pyridin-3-ylmethyl)piperidin-4-yloxy)benzamide], 1000 to 10000 nM.

As a reminder, the EC50 is the concentration needed to bring the measured effect to its halfway point. The low end stands for an effect from little substance, the high end for a need for much substance.
